Reference: patent US12544375B2, “Small molecule therapeutic for parkinson's disease paired with a biomarker of therapeutic activity” (The Board of Trustees of the Leland Stanford Junior …, priority 2019, dated 2026)

Experiments:
Format in all cases: cell-based, human
[1] = test system: healthy-1 or PD-2 fibroblasts; assay: Baseline mitochondrial reactive oxygen species, MitoSox staining; details: 10 μM for 30 hrs
Protocol: (§1) FIG. 8. Related to FIG. 2-4. Miro1 Reducer in Human Cell and Fly Models. (A) Fibroblasts from Healthy-1 and PD-2 were treated, lysed, and blotted as indicated. Band intensities are normalized to those of GAPDH from the same blots and compared to “Healthy-1, no treatment”. n=4 independent experiments. (B) Fibroblasts from PD-2 were treated and immunostained as indicated. The intensity was quantified for each cell across 264-320 cells from 3 independent experiments, compared to “no treatment”. (C) Fibroblasts were treated, immunoprecipitated (IPed) with anti-Miro1, and blotted as indicated. Similar results were observed twice. (D) Similar as in (C), fibroblasts were treated as indicated, and IPed with anti-Miro1. The GTPase activity of the IPed Miro1 protein was measured as described in Method. […] The MitoSox intensity was quantified for each cell across 106-161 cells from 3 coverslips. […] The TMRM intensity was measured for each cell across 48-60 cells from 3 independent experiments, and expressed as a fraction of the mean of “Healthy-1, no treatment”. […] The movement (the intensity of non-yellow) was quantified for each cell as described in (Tsai et al., 2014) across 22-31 cells from 3 transfections. […] (1) Left: The percentage of TH-positive iPSC-derived neurons out of total cells (Dapi-positive) is calculated after immunocytochemistry under 20× as described in FIG. 3. […]

PD fibroblasts = assay: Mitophagy at 14 hrs after CCCP in PD fibroblasts (Western blotting and immunocytochemistry); details: 14 hrs after CCCP treatment
Protocol: as §1

Miro1 mRNA = Miro1 mRNA expression by qPCR in fibroblasts
Protocol: FIG. 8. Related to FIG. 2-4. Miro1 Reducer in Human Cell and Fly Models. (A) Fibroblasts from Healthy-1 and PD-2 were treated, lysed, and blotted as indicated. Band intensities are normalized to those of GAPDH from the same blots and compared to “Healthy-1, no treatment”. n=4 independent experiments. (B) Fibroblasts from PD-2 were treated and immunostained as indicated. The intensity was quantified for each cell across 264-320 cells from 3 independent experiments, compared to “no treatment”. (C) Fibroblasts were treated, immunoprecipitated (IPed) with anti-Miro1, and blotted as indicated. Similar results were observed twice. […] The GTPase activity of the IPed Miro1 protein was measured as described in Method. […] The MitoSox intensity was quantified for each cell across 106-161 cells from 3 coverslips. […] The TMRM intensity was measured for each cell across 48-60 cells from 3 independent experiments, and expressed as a fraction of the mean of “Healthy-1, no treatment”. […] The movement (the intensity of non-yellow) was quantified for each cell as described in (Tsai et al., 2014) across 22-31 cells from 3 transfections. […] (1) Left: The percentage of TH-positive iPSC-derived neurons out of total cells (Dapi-positive) is calculated after immunocytochemistry under 20× as described in FIG. 3. […]
PCR. […] Concentrations of total RNA were measured using a Nano Drop. […]

O=C(Nc1ccc(Nc2cc(-n3ccnc3)ncn2)cc1)Nc1cccc(F)c1 [Miro1 Reducer]
baseline mitochondrial reactive oxygen species levels (MitoSox) [1]: did not affect | delayed mitophagy phenotype (PD fibroblasts): rescued the delayed mitophagy phenotype | Miro1 mRNA expression (qPCR) (Miro1 mRNA): nor did it change Miro1 mRNA expression
